Test results as given in patent US20110086826A1, “LIPOSOMAL CAMPTOTHECINS AND USES THEREOF” (TEKMIRA PHARMACEUTICALS CORPORATION, priority 2000, published 2011).
Where two headings read alike, the source gives them in different places. Marks after values point to notes of the source that are not given here.

Columns and labels:
[1] = Pharmacokinetic and in vivo leakage studies; parameters: species or system ICR mice; details: plasma, i.v.
Description: 5. Pharmacokinetic and in vivo leakage studies. […] Two different drug-to-lipid ratios, i.e., 0.10 (w/w) and 0.02 (w/w), were used to examine the influence of drug-to-lipid ratio and lipid dose on drug leakage and PK behavior. Encapsulated topotecan was administered at 1 mg/kg (10 or 50 mg/kg lipid) and 5 mg/kg topotecan (50 mg/kg lipid). […] Total topotecan in blood was determined by a fluorescence assay preceded by precipitation of plasma proteins. Topotecan was quantified by spectrofluorimetry at an excitation (2.5 nm slit width) and emission wavelength (2.5 nm slit width) of 380 and 518 nm, respectively. Lipid levels in plasma were determined by liquid scintillation counting of the [^3H]-CHE label.
All parameters were derived from one or two-compartment models using WINNONLIN PK modeling software.

[2] = Myelosuppression and neutropenia studies (blood CBC and differential); assay type: in vivo, ICR mice; details: 10 mg/kg i.v.
Description: (§2) Myelosuppression and neutropenia studies. […] Empty vesicles were administered as a control. CBC and differential analysis was performed at Central Labs for Veterinarians (Langley, BC) to quantify cellular levels, ratios and morphology.

Serum chemistry panel = assay type: in vivo, ICR mice; details: 10 mg/kg i.v., day 3 post-injection
Description: as §2

L1210 murine leukemia = experiment: Intravenous L1210 murine leukemia model; details: for % ILS (increase in lifespan) / DRD (drug related deaths) / MWL (maximum mean weight loss) / TF (tumor free animals at end of study): L1210 i.v.
Description: FIG. 3. […] L1210 cells (10^5 cells in 200 μl) were injected i.v. into the tail vein of BDF-1 mice on day 0. […] Each group consisted of 8 animals. Data is from NCTEF-005.
(§1) In the above formula, MTD is the maximum tolerated dose, defined as that dose that causes a mean weight loss of 20% in a group of animals; and MED is the minimal effective dose, defined as the dose that produces an optimal % T/C value of ≦40 in the solid tumor models or an % ILS of 50±10% in the survival models.

[3] = test system: CT-26 murine colon metastases; experiment: Intrasplenic CT-26 murine colon metastases model; details: for % ILS (increase in lifespan) / DRD (drug related deaths) / MWL (maximum mean weight loss) / TF (tumor free animals at end of study): CT-26 i.s.
Description: FIG. 4. […] CT-26 cells (10^4 cells in 50 μl) were injected into the spleen of Balb/c mice on day 0. […] Each group consisted of 8 animals. Data is from NCTEF-002.
as §1

[4] = test system: MX-1 human breast xenografts; experiment: Subcutaneous MX-1 human breast xenografts
Text: FIG. 5. […] Data is from NCTEF-004.
FIG. 7. […] Data is from NCTEF-006.
FIG. 8. […] Data is from NCTEF-009.

[5] = Topotecan lactone species in plasma; assay type: in vivo, mice; details: after only 5 minutes
[6] = humans, daily for 5 consecutive days (d×5); cited from earlier work
[7] = cited from earlier work
[8] = MTD of free topotecan in humans; details: 1.5 vs 14 mg/M^2
[9] = MTD studies (weight loss over time); details: if the drug was infused over 5-10 minutes
Description: MTD studies. MTD studies were performed in the host mouse strain corresponding to each tumor model. Single dose and multidose MID were determined by monitoring weight loss over time.

[10] = test system: LX-1 human SCLC xenografts; experiment: Subcutaneous LX-1 human SCLC xenografts; details: for % ILS (increase in lifespan) / DRD (drug related deaths) / LCK (log cell kill, gross) / MWL (maximum mean weight loss): LX-1 s.c.
Description: Topotecan was encapsulated in SM:CH (55:45) vesicles at a drug-to-lipid ratio of 0.10 (w/w) using the Mg-A23187 method as described in Experimental. All dilutions were made in sterile 0.9% saline immediately prior to injection. Drug administration was made via the lateral tail vein at 10 days post-tumor cell implantation when the tumors were 100-300 mm^3. Data points represent mean±SEM (n=6).
Topotecan was encapsulated in SM:CH (55:45) vesicles at a drug-to-lipid ratio of 0.10 (w/w) using the Mg-A23187 method as described in Experimental. All dilutions were made in sterile 0.9% saline immediately prior to injection. Drug administration was made via the lateral tail vein on day 14, 21 and 28 post-tumor cell implantation. Data points represent mean±SEM (n=6).
Tumor Models. […] Human MX-1 and LX-1 cell lines were obtained from the DCTD Tumor Repository in Frederick, Md. These cell lines were received as tumor fragments and were propagated in NCr nude mice by serial transplantation of 3×3 mm fragments. Experiments were not initiated until the cell lines had been through 3 passages in nude mice and the tumor lines were restarted when the passage number reached 10.
Efficacy Studies. […] For the MX-1 and LX-1 tumor models, tumor volume was determined by repeated perpendicular measurements of tumor dimensions and using the formula:

[11] = day 3 post-injection (first line of treatment)
[12] = day 21 post-injection (second line of treatment)
[13] = L1210, single i.v. dose, highest dose of free topotecan
[14] = MX-1 s.c., q3dx4, 1.25 mg/kg/dose i.v.
[15] = MX-1 s.c., q3dx4, 10 mg/kg/dose i.v.
[16] = MX-1 s.c., q7dx3, 5 mg/kg/dose i.v.
[17] = MX-1 s.c., q7dx3, 10 mg/kg/dose i.v.
[18] = MX-1 s.c., single dose 5, 10 and 40 mg/kg
[19] = MX-1 s.c., single i.v. dose 5 mg/kg
[20] = MX-1 s.c., single i.v. dose 10 mg/kg
[21] = MX-1 s.c., single i.v. dose 40 mg/kg
[22] = q7dx3, NCTEF-007, 10 mg/kg/dose i.v.
[23] = q7dx3, NCTEF-007, 30 mg/kg/dose i.v.
[24] = q7dx3, NCTEF-011, 10 mg/kg/dose i.v.
[25] = q7dx3, NCTEF-011, 30 mg/kg/dose i.v.

CC[C@@]1(O)C(=O)OCc2c1cc1n(c2=O)Cc2cc3c(CN(C)C)c(O)ccc3nc2-1 [Free, 9-dimethylaminomethyl-10-hydroxy-camptothecin]
α1/2 ([1]; 1 mg/kg): 0.14 h | β1/2 ([1]; 1 mg/kg): 11.8 h | α1/2 ([1]; 5 mg/kg): 0.26 h | β1/2 ([1]; 5 mg/kg): 11.4 h | Baso ([2]; day 3 post-injection): 0.057 ± 0.040 ×10^9/L | Eosino ([2]; day 3 post-injection): 0.031 ± 0.021 ×10^9/L | Lympho ([2]; day 3 post-injection): 5.90 ± 1.70 ×10^9/L | Mono ([2]; day 3 post-injection): 0.177 ± 0.072 ×10^9/L | Neutro ([2]; day 3 post-injection): 0.520 ± 0.200 ×10^9/L | WBC ([2]; day 3 post-injection): 6.70 ± 1.95 ×10^9/L | Hb [2, 11]: 136 ± 05 g/L | Hc [2, 11]: 0.444 ± 0.012 L/L | PLT [2, 11]: 879 ± 145 ×10^9/L | RBC [2, 11]: 8.47 ± 0.39 ×10^12/L | Baso ([2]; day 21 post-injection): 0.088 ± 0.071 ×10^9/L | Eosino ([2]; day 21 post-injection): 0.034 ± .016 ×10^9/L | Lympho ([2]; day 21 post-injection): 4.33 ± 0.93 ×10^9/L | Mono ([2]; day 21 post-injection): 0.247 ± 0.180 ×10^9/L | Neutro ([2]; day 21 post-injection): 0.480 ± 0.122 ×10^9/L | WBC ([2]; day 21 post-injection): 5.16 ± 1.18 ×10^9/L | Hb [2, 12]: 154 ± 04 g/L | Hc [2, 12]: 0.493 ± 0.014 L/L | PLT [2, 12]: 907 ± 059 ×10^9/L | RBC [2, 12]: 9.81 ± 0.37 ×10^12/L | ALT (Serum chemistry panel): 13 ± 23 IU/L | Albumin (Serum chemistry panel): 32.8 ± 1.3 g/L | BUN (Serum chemistry panel): 9.4 ± 3.2 mmol/L | Bilirubin (Serum chemistry panel): 3.8 ± 0.8 µmol/L | CPK (Serum chemistry panel): 56 ± 38 IU/L | Creatinine (Serum chemistry panel): 82 ± 18 µmol/L | Globulin (Serum chemistry panel): 15.2 ± 1.1 g/L | TP (Serum chemistry panel): 48.0 ± 2.1 g/L | long-term survivors (day 60) (L1210 murine leukemia; [13]): one long-term survivor | median survival (L1210 murine leukemia; [13]): 13 days | % ILS (increase in lifespan) (L1210 murine leukemia; single i.v. dose 5 mg/kg): 11% | DRD (drug related deaths) (L1210 murine leukemia; single i.v. dose 5 mg/kg): 0/8 | MWL (maximum mean weight loss) (L1210 murine leukemia; single i.v. dose 5 mg/kg): + | TF (tumor free animals at end of study) (L1210 murine leukemia; single i.v. dose 5 mg/kg): 0/8 | % ILS (increase in lifespan) (L1210 murine leukemia; single i.v. dose 10 mg/kg): 22% | DRD (drug related deaths) (L1210 murine leukemia; single i.v. dose 10 mg/kg): 0/8 | MWL (maximum mean weight loss) (L1210 murine leukemia; single i.v. dose 10 mg/kg): + | TF (tumor free animals at end of study) (L1210 murine leukemia; single i.v. dose 10 mg/kg): 0/8 | % ILS (increase in lifespan) (L1210 murine leukemia; single i.v. dose 20 mg/kg): 33% | DRD (drug related deaths) (L1210 murine leukemia; single i.v. dose 20 mg/kg): 0/8 | MWL (maximum mean weight loss) (L1210 murine leukemia; single i.v. dose 20 mg/kg): + | TF (tumor free animals at end of study) (L1210 murine leukemia; single i.v. dose 20 mg/kg): 0/8 | DRD (drug related deaths) (L1210 murine leukemia; single i.v. dose 30 mg/kg): 0/8 | MWL (maximum mean weight loss) (L1210 murine leukemia; single i.v. dose 30 mg/kg): + | TF (tumor free animals at end of study) (L1210 murine leukemia; single i.v. dose 30 mg/kg): 0/8 | DRD (drug related deaths) (L1210 murine leukemia; single i.v. dose 40 mg/kg): 0/8 | MWL (maximum mean weight loss) (L1210 murine leukemia; single i.v. dose 40 mg/kg): + | TF (tumor free animals at end of study) (L1210 murine leukemia; single i.v. dose 40 mg/kg): 0/8 | % ILS ([3]; CT-26, single dose, over the dose range 5-40 mg/kg): 23-60% | % ILS (increase in lifespan) ([3]; single i.v. dose 5 mg/kg): 31% | DRD (drug related deaths) ([3]; single i.v. dose 5 mg/kg): 0/8 | MWL (maximum mean weight loss) ([3]; single i.v. dose 5 mg/kg): + | TF (tumor free animals at end of study) ([3]; single i.v. dose 5 mg/kg): 0/8 | % ILS (increase in lifespan) ([3]; single i.v. dose 10 mg/kg): 23% | DRD (drug related deaths) ([3]; single i.v. dose 10 mg/kg): 0/8 | MWL (maximum mean weight loss) ([3]; single i.v. dose 10 mg/kg): + | TF (tumor free animals at end of study) ([3]; single i.v. dose 10 mg/kg): 0/8 | DRD (drug related deaths) ([3]; single i.v. dose 40 mg/kg): 0/8 | MWL (maximum mean weight loss) ([3]; single i.v. dose 40 mg/kg): −0.4% | TF (tumor free animals at end of study) ([3]; single i.v. dose 40 mg/kg): 1/8 | anti-tumor activity (in words) ([4]; MX-1, q7d×3, 5 or 10 mg/kg/dose): little activity was observed | % ILS (increase in lifespan) [4, 14]: 20% | DRD (drug related deaths) [4, 14]: 0/6 | LCK (log cell kill, gross) [4, 14]: 0.17 | MWL (maximum mean weight loss) [4, 14]: +^h | TF (tumor free animals at end of study) [4, 14]: 0/6 | DRD (drug related deaths) [4, 15]: 0/6 | LCK (log cell kill, gross) [4, 15]: 0.21 | MWL (maximum mean weight loss) [4, 15]: + | TF (tumor free animals at end of study) [4, 15]: 1/6 | DRD (drug related deaths) [4, 16]: 0/6 | LCK (log cell kill, gross) [4, 16]: 0.15 | MWL (maximum mean weight loss) [4, 16]: + | TF (tumor free animals at end of study) [4, 16]: 0/6 | % T/C (optimal) [4, 17]: 61% | DRD (drug related deaths) [4, 17]: 0/6 | MWL (maximum mean weight loss) [4, 17]: −0.8% | TF (tumor free animals at end of study) [4, 17]: 0/6 | body weight [4, 18]: all animals gained weight | drug-related deaths [4, 18]: No drug-related deaths were observed | % ILS (increase in lifespan) [4, 19]: 0% | % T/C (optimal) [4, 19]: 78% | DRD (drug related deaths) [4, 19]: 0/6 | LCK (log cell kill, gross) [4, 19]: 0.02 | MWL (maximum mean weight loss) [4, 19]: + | T − C (tumor growth delay) [4, 19]: 0.2 days | TF (tumor free animals at end of study) [4, 19]: 0/6 | % ILS (increase in lifespan) [4, 20]: 13% | DRD (drug related deaths) [4, 20]: 0/6 | LCK (log cell kill, gross) [4, 20]: 0.12 | MWL (maximum mean weight loss) [4, 20]: + | TF (tumor free animals at end of study) [4, 20]: 0/6 | % ILS (increase in lifespan) [4, 21]: 35% | % T/C (optimal) [4, 21]: 24% | DRD (drug related deaths) [4, 21]: 0/6 | LCK (log cell kill, gross) [4, 21]: 0.35 | MWL (maximum mean weight loss) [4, 21]: + | TF (tumor free animals at end of study) [4, 21]: 0/6 | topotecan present in plasma as the lactone species [5]: 48% | MTD [6]: 1.5 mg/M^2/dose | LD10 ([7]; mouse, in vivo): 14 mg/M2/dose | LD10 ([7]; qd×5 schedule, Grochow et al.): ~4.7 mg/kg/dose | human tolerated dose as share of the MTD in mice [8]: 11% | true MTD (based on weight loss), estimated [9]: ~60 mg/kg | anti-tumor activity (in words) ([10]; LX-1, initial single dose studies): inactive at evaluated doses<30 mg/kg | % ILS (increase in lifespan) [10, 22]: 21% | DRD (drug related deaths) [10, 22]: 0/6 | LCK (log cell kill, gross) [10, 22]: 0.14 | MWL (maximum mean weight loss) [10, 22]: −6.2% | DRD (drug related deaths) [10, 23]: 0/6 | LCK (log cell kill, gross) [10, 23]: 1.53 | MWL (maximum mean weight loss) [10, 23]: −8.8% | DRD (drug related deaths) [10, 24]: 0/6 | MWL (maximum mean weight loss) [10, 24]: −3.6% | DRD (drug related deaths) [10, 25]: 2/6 | MWL (maximum mean weight loss) [10, 25]: −16.4% | % ILS (increase in lifespan) ([10]; single i.v. dose 5 mg/kg): 0% | DRD (drug related deaths) ([10]; single i.v. dose 5 mg/kg): 0/6 | LCK (log cell kill, gross) ([10]; single i.v. dose 5 mg/kg): 0.13 | MWL (maximum mean weight loss) ([10]; single i.v. dose 5 mg/kg): + | % ILS (increase in lifespan) ([10]; single i.v. dose 10 mg/kg): 0% | DRD (drug related deaths) ([10]; single i.v. dose 10 mg/kg): 0/6 | LCK (log cell kill, gross) ([10]; single i.v. dose 10 mg/kg): 0.18 | MWL (maximum mean weight loss) ([10]; single i.v. dose 10 mg/kg): + | % ILS (increase in lifespan) ([10]; single i.v. dose 30 mg/kg): 7% | DRD (drug related deaths) ([10]; single i.v. dose 30 mg/kg): 0/6 | LCK (log cell kill, gross) ([10]; single i.v. dose 30 mg/kg): 0.27 | MWL (maximum mean weight loss) ([10]; single i.v. dose 30 mg/kg): −1.3%
